{
  "source": "patent US20250297998A1",
  "about": "“SYSTEM AND METHODS FOR MEASURING AIRBORNE GLYCOL” (Grignard Pure LLC, priority 2022, published 2025)",
  "key": {"[1]": {"assay": "ASTM D93 flash point", "type": "physicochemical", "excerpt": "(§1) As a non-limiting example, the sanitizing formulation can include 52.25% TEG by weight, 1.00% PG by weight, and 46.75% water (e.g., deionized water) by weight. The properties of this particular example of the sanitizing formulation (and pure TEG as a comparative reference) is summarized in the table below"}, "[2]": {"assay": "ASTM D445 kinematic viscosity", "type": "physicochemical", "excerpt": "as §1"}, "[3]": {"assay": "PLTL-15 Odor Test", "type": "physicochemical", "excerpt": "as §1"}, "[4]": {"assay": "ASTM D323 vapor pressure", "type": "physicochemical", "details": "@ 20° C.", "excerpt": "as §1"}, "[5]": {"assay": "ASTM D4052 specific gravity", "type": "physicochemical", "excerpt": "as §1"}, "[6]": {"details": "cited from earlier work"}, "[7]": {"assay": "ASTM D117 freeze point", "type": "physicochemical", "excerpt": "as §1"}, "[8]": {"assay": "ASTM D1120 boiling point", "type": "physicochemical", "excerpt": "as §1"}, "[9]": {"assay": "Visual appearance and odor", "type": "physicochemical", "excerpt": "as §1"}},
  "data": [
    {"smiles": "OCCOCCOCCO", "note": "[Pure TEG, triethylene glycol]", "values": [
      {"measurement": "Flash Point (° C.)", "setting": "[1]", "result": 157, "unit": "° ° C."},
      {"measurement": "Viscosity, Kinematic @ 40° C.", "setting": "[2]", "result": 42.3, "unit": "cSt"},
      {"measurement": "Odor Test", "setting": "[3]", "result": "No Odor"},
      {"measurement": "Vapor Pressure (psi)", "setting": "[4]", "result": 0.0, "unit": "psi @ 20 °C"},
      {"measurement": "Specific Gravity @ 20° C.", "setting": "[5]", "result": "1.12-1.13"},
      {"measurement": "flash point", "setting": "[6]; TEG alone, flammable liquid", "result": 157, "unit": "°C"},
      {"measurement": "boiling point", "setting": "[6]; at a pressure of 101.325 kPa", "result": 286.5, "unit": "°C"},
      {"measurement": "Freeze Point ° C.", "setting": "[7]", "result": "−7.0", "unit": "° ° C."},
      {"measurement": "Boiling Point (° C.)", "setting": "[8]", "result": 285, "unit": "° ° C."},
      {"measurement": "Appearance and Odor", "setting": "[9]", "result": "Clear/Uniform"}
    ]}
  ]
}
